Data from patent US20140011706A1, “SURFACE DISPLAY OF PO[…] METAL PORPHYRIN OR A FLAVIN” (Autodisplay Biotech GMBH, priority 2010, published 2014).
Read-outs that look alike come from different tables or passages of the source.

How the values were obtained:
CYP106A2 [1] = target: T1, CYP106A2 (Priestia megaterium, UniProt Q06069)
CYP106A2 [2] = target: T1, CYP106A2; assay: NADPH consumption of cells displaying CYP106A2 in the presence of imipramine (N-demethylation); assay type: biochemical, E. coli BL21(DE3); set-up: expressed in transfected cells; host or cells: E. coli BL21(DE3) pET-CYP13, induced with 1 mM IPTG; conditions: imipramine 2.5 μM, NADPH 200 μM, BL21(DE3) pETCYP13 cells OD578=2.5, Adx and AdR added
Method: The cells were prepared as described in Example 1. Redox equivalents are transferred from NADPH via the proteins AdR and Adx to the converting enzyme.
The reaction mixture contained in a total volume of 0.2 mL Hepes buffer (50 mM, 0.05% Tween20, pH 7.4), imipramine (2.5 μM), Adx ([…]), AdR (0.5 μM), NADPH (200 μM) and cells of E. coli BL21(DE3) or BL21(DE3) pETCYP13 corresponding to an OD578=2.5.
The by-product formalin (cf. FIG. 17) has been photometrically identified to be produced by the cells displaying CYP106A2, but not in the control cells (data not shown).

[3] = E. coli BL21(DE3) pETCYP13 whole cells, induced with 1 mM IPTG, Adx and AdR added

| SMILES | product formation from substrate (HPLC product peak) (CYP106A2 [1]; BL21(DE3) pETCYP13 whole cells, 1 mM IPTG, without addition of Adx) | product formation from substrate (HPLC product peak) (CYP106A2 [1]; [3]) | amount of product 15β-deoxycorticosterone (HPLC) (CYP106A2 [1]; TolC negative strain JW5503-1 (DE3) pETCYP13 compared with TolC positive BL21(DE3) pETCYP13, IPTG induced) | conversion indicated by NADPH consumption difference versus control cells (CYP106A2 [2]) |
| --- | --- | --- | --- | --- |
| C[C@]12CC[C@H]3[C@@H](CCC4=CC(=O)CC[C@@]43C)[C@@H]1CC[C@@H]2C(=O)CO [11-deoxycorticosterone] | no product peak | resulted in a product peak | decreased | – |
| CC(C)C1=CC2=CC[C@@H]3[C@](C)(CCC[C@@]3(C)C(=O)O)[C@H]2CC1 [abietic acid] | – | a product occurred at the expected retention time | – | – |
| CN(C)CCCN1c2ccccc2CCc2ccccc21 [imipramine] | – | – | – | conversion of imipramine into desipramine |
